IC50 data for 17 molecules are collected here from patent US8163768B2, “1,4-dihydropyridine-fused heterocycles, process for preparing the same, use and compositions containing them” (Aventis Pharma S.A.., priority 2005, dated 2012).

One assay deals with T1, Aurora2 (Aurora-A) (Homo sapiens, UniProt O14965).
T1 construct: Aurora-A: the full length recombinant protein including an N-terminal poly-histidine tail has been expressed in E. coli; poly-histidine (N); made in house; host or cells: E. coli
T1 sequence (O14965 1-403): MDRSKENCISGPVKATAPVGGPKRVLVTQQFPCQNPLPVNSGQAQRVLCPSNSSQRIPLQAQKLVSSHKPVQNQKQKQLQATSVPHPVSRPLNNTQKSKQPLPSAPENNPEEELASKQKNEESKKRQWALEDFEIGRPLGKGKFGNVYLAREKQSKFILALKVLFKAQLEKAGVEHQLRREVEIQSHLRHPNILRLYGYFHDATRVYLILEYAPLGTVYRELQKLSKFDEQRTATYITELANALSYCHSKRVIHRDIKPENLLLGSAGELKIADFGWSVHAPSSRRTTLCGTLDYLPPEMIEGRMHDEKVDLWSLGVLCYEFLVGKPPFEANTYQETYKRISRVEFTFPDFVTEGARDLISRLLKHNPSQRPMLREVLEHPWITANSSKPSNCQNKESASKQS
Nature of the assay: Aurora 2 (Aurora A) kinase radioactivity scintillation assay using nickel chelate Flash plates. Format: biochemical. As to conditions: 10 nM Aurora-A, 500 nM NuMA substrate, 1 μM ATP with [33P] ATP, 10 mM MgCl2, 30 minutes, 37° C. As to the method:
(§1) Aurora 1 and 2 (Respectively. Aurora B and A)
(§2) The inhibitory effect of compounds with respect to the Aurora 1 and 2 kinases is determined with a radioactivity scintillation assay using nickel chelate.
(§3) The kinase activity of Aurora is measured by the phosphorylation of NuMA-histidine substrate in the presence of radiolabelled ATP ([^33P] ATP) using 96 well Flash plates where the nickel-chelate is linked to the surface of the microplate. The amount of ^33P incorporated to the substrate NuMA is proportional to the aurora activity.
(§4) The Flash plates used are nickel-chelate 96 well plates (Perkin Elmer, model SMP107).
(§5) The products to be evaluated are incubated in a 100 μl reaction volume per well in the presence of 10 nM of Aurora-B or Aurora-A, 500 nM of NuMA substrate in the following buffer: 50 mM of NaCl, 5 mM MgCl2, (Aurora-B) or 10 mM MgCl2 (Aurora-A) and 1 mM of DTT at 37° C.
(§6) 80 μL of enzyme/substrate incubation buffer is distributed in each well, followed by 10 μL of solution of compound to be measured with various concentrations. The reaction is started by adding 1 μM of ATP (final concentration) containing 0.2 μCi of [^33P] ATP (10 μL). After 30 minutes of incubation the reaction is stopped by removal of the reaction mixture and each well is washed twice with 300 μl of buffer Tris/HCl. The radioactivity is measured in each well using a Packard Top count scintillation counter instrument.
(§7) The enzymatic activity is expressed as counts per minute obtained in 30 minutes after subtraction of the background noise (reaction medium without enzyme). The measurement is expressed as percentage of inhibition of Aurora activity versus the control. To generate IC50 values, compounds of the invention are tested at different concentration and the percentage of inhibition are plotted as function of compound concentration, IC50s are calculated using the Xlfit 4 curve fitting software.

Another assay has as its target T2, Aurora1 (Aurora-B) (Homo sapiens, UniProt Q96GD4).
T2 construct: Aurora-B: the full length protein (His tagged in N-terminal) has been co expressed in SF9 cells; poly-histidine (N); made in house; host or cells: SF9 cells
Nature of the assay: Aurora 1 (Aurora B) kinase radioactivity scintillation assay using nickel chelate Flash plates. Format: biochemical. As to conditions: 10 nM Aurora-B (co expressed with C3 fragment of INCEP), 500 nM NuMA substrate, 1 μM ATP with [33P] ATP, 5 mM MgCl2, 30 minutes, 37° C. On the procedure:
as §1, §2, §3, §4, §5, §6, §7

T2 sequence (Q96GD4 whole entry, species assumed): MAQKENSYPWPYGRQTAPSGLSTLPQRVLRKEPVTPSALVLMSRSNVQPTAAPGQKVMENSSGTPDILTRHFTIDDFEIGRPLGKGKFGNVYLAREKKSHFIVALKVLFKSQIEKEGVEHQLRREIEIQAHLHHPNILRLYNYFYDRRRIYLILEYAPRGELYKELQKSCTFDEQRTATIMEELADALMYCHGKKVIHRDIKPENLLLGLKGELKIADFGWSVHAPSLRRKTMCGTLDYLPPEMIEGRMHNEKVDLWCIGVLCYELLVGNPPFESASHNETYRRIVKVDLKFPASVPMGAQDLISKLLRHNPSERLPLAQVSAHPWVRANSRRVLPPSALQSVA
T2 sequence (Q9NQS7 821-918 partner limits assumed, species assumed): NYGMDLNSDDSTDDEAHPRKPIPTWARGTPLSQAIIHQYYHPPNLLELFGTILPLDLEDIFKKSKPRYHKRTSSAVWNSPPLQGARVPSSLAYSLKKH

`O=C1CC(c2ccco2)CC2=C1C(c1ccc(Sc3nc4ccccc4[nH]3)o1)c1c[nH]nc1N2` (stereo not shown) [Example 34, 4-[5-(1H-Benzimidazol-2-ylsulfanyl)-furan-2-yl]-7-furan-2-yl-2,4,6,7,8,9-hexahydro-pyrazolo[3,4-b]quinolin-5-one; compound with trifluoro-acetic acid]: the values for the IC50 on Aurora2 (Aurora-A) and on Aurora1 (Aurora-B) were 0.023 µM and 0.005 µM, respectively.
The like results for `O=C1CC(c2ccc3c(c2)OCO3)CC2=C1C(c1ccc(Sc3nc4ccccc4[nH]3)o1)c1c[nH]nc1N2` (stereo not shown) [Example 35, 7-Benzo[1,3]dioxol-5-yl-4-[5-(1H-benzimidazol-2-ylsulfanyl)-furan-2-yl]-2,4,6,7,8,9-hexahydro-pyrazolo[3,4-b]quinolin-5-one; compound with trifluoro-acetic acid] were, in that order, 0.019 µM and 0.005 µM.
The like results for `COc1ccc(C2CC(=O)C3=C(C2)Nc2n[nH]cc2C3c2ccc(Sc3nc4ccccc4[nH]3)o2)cc1OC` (stereo not shown) [Example 36, 4-[5-(1H-Benzimidazol-2-ylsulfanyl)-furan-2-yl]-7-(3,4-dimethoxy-phenyl)-2,4,6,7,8,9-hexahydro-pyrazolo[3,4-b]quinolin-5-one; compound with trifluoro-acetic acid] were, in that order, 0.041 µM and 0.011 µM.
The like results for `CCCCCC1CC(=O)C2=C(C1)Nc1n[nH]cc1C2c1ccc(Sc2nc3ccccc3[nH]2)o1` (stereo not shown) [Example 37, 4-[5-(1H-Benzimidazol-2-ylsulfanyl)-furan-2-yl]-7-pentyl-2,4,6,7,8,9-hexahydro-pyrazolo[3,4-b]quinolin-5-one; compound with trifluoro-acetic acid] were, in that order, 0.029 µM and 0.007 µM.
As for `O=C1CC(c2ccccc2F)CC2=C1C(c1ccc(Sc3nc4ccccc4[nH]3)o1)c1c[nH]nc1N2` (stereo not shown) [Example 38, 4-[5-(1H-Benzimidazol-2-ylsulfanyl)-furan-2-yl]-7-(2-fluoro-phenyl)-2,4,6,7,8,9-hexahydro-pyrazolo[3,4-b]quinolin-5-one; compound with trifluoro-acetic acid], the values for the 50% inhibitory concentration (IC50) at Aurora2 (Aurora-A) and at Aurora1 (Aurora-B) were 0.018 µM and 0.007 µM, respectively.
For `COc1ccccc1C1CC(=O)C2=C(C1)Nc1n[nH]cc1C2c1ccc(Sc2nc3ccccc3[nH]2)o1` (stereo not shown) [Example 39, 4-[5-(1H-Benzimidazol-2-ylsulfanyl)-furan-2-yl]-7-(2-methoxy-phenyl)-2,4,6,7,8,9-hexahydro-pyrazolo[3,4-b]quinolin-5-one; compound with trifluoro-acetic acid] the same measures were 0.134 µM and 0.038 µM.
Take `O=C1CCCCC2=C1C(c1ccc(Sc3nc4ccccc4[nH]3)o1)c1c[nH]nc1N2` (stereo not shown) [Example 41, 4-[5-(1H-Benzoimidazol-2-ylsulfanyl)-furan-2-yl]-4,6,7,8,9,10-hexahydro-2H-1,2,10-triaza-cyclohepta[f]inden-5-one; compound with trifluoro-acetic acid]: the values for the IC50 on Aurora2 (Aurora-A) and on Aurora1 (Aurora-B) were 0.029 µM and 0.01 µM, respectively.
As for `O=C1OCC2=C1C(c1ccc(Sc3nc4ccccc4[nH]3)o1)c1c[nH]nc1N2` (stereo not shown) [Example 42, 4-[5-(1H-Benzoimidazol-2-ylsulfanyl)-furan-2-yl]-2,4,7,8-tetrahydro-6-oxa-1,2,8-triaza-s-indacen-5-one; compound with trifluoro-acetic acid], the IC50 (commonly the midpoint of a concentration-inhibition curve) was determined as 0.508 µM on Aurora2 (Aurora-A) and 0.017 µM at Aurora1 (Aurora-B).
For the molecule `O=C1CN(CC(O)CN2CCCCC2)CC2=C1C(c1ccc(Sc3nc4ccccc4[nH]3)o1)c1c[nH]nc1N2` (stereo not shown) [Example 45, 4-[5-(1H-Benzimidazol-2-ylsulfanyl)-furan-2-yl]-7-(2-hydroxy-3-piperidin-1-yl-propyl)-2,4,6,7,8,9-hexahydro-pyrazolo[3,4-b]-1,7-naphthyridin-5-one; compound with trifluoro-acetic acid], the IC50 came to 0.887 µM on Aurora2 (Aurora-A) and 0.043 µM at Aurora1 (Aurora-B).
For the molecule `O=C1CNCC2=C1C(c1ccc(Sc3nc4ccccc4[nH]3)o1)c1c[nH]nc1N2CC(O)CN1CCOCC1` (stereo not shown) [Example 52, 4-[5-(1H-Benzimidazol-2-ylsulfanyl)-furan-2-yl]-9-(2-hydroxy-3-morpholin-4-yl-propyl)-2,4,6,7,8,9-hexahydro-pyrazolo[3,4-b]-1,7-naphthyridin-5-one; compound with trifluoro-acetic acid], the IC50 on Aurora2 (Aurora-A) stood at 1.94 µM; at Aurora1 (Aurora-B), 0.145 µM.
As for `CN1C2=C(C(=O)CCC2)C(c2ccc(Sc3nc4ccccc4[nH]3)o2)c2c[nH]nc21` (stereo not shown) [Example 59, 4-[5-(1H-Benzimidazol-2-ylsulfanyl)-furan-2-yl]-9-methyl-2,4,6,7,8,9-hexahydro-pyrazolo[3,4-b]quinolin-5-one; compound with trifluoro-acetic acid], the IC50 at Aurora2 (Aurora-A) is 2.22 µM; on Aurora1 (Aurora-B), 0.136 µM.
On to `Cc1ccc2[nH]c(Sc3ccc(C4C5=C(CCCC5=O)Nc5n[nH]cc54)o3)nc2c1` (stereo not shown) [Example 70, 4-[5-(5-Methyl-1H-benzimidazol-2-ylsulfanyl)-furan-2-yl]-2,4,6,7,8,9-hexahydro-pyrazolo[3,4-b]quinolin-5-one; compound with trifluoro-acetic acid compound with trifluoro-acetic acid], for which the IC50 worked out at 0.031 µM on Aurora2 (Aurora-A) and 0.008 µM on Aurora1 (Aurora-B).
For `Cc1ccc2[nH]c(Sc3ccc(C4C5=C(CNCC5=O)Nc5n[nH]cc54)o3)nc2c1` (stereo not shown) [Example 71, 4-[5-(5-Methyl-1H-benzimidazol-2-ylsulfanyl)-furan-2-yl]-2,4,6,7,8,9-hexahydro-pyrazolo[3,4-b]-1,7-naphthyridin-5-one; compound with trifluoro-acetic acid] the same measures were 0.187 µM and 0.015 µM.
On to `Cc1ccc2[nH]c(Sc3ccc(C4C5=C(CC(C)(C)CC5=O)Nc5n[nH]cc54)o3)nc2c1` (stereo not shown) [Example 72, 7,7-Dimethyl-4-[5-(5-methyl-1H-benzimidazol-2-ylsulfanyl)-furan-2-yl]-2,4,6,7,8,9-hexahydro-pyrazolo[3,4-b]quinolin-5-one], for which the IC50 came out at 0.02 µM at Aurora2 (Aurora-A) and 0.006 µM on Aurora1 (Aurora-B).
For `O=C1CCCC2=C1C(c1ccc(Sc3nc4cc(Cl)ccc4s3)o1)c1c[nH]nc1N2` (stereo not shown) [Example 73, 4-[5-(5-Chloro-benzothiazol-2-ylsulfanyl)-furan-2-yl]-2,4,6,7,8,9-hexahydro-pyrazolo[3,4-b]quinolin-5-one; compound with trifluoro-acetic acid] the same measures were 0.035 µM and 0.055 µM.
As for `O=C1CNCC2=C1C(c1ccc(Sc3nc4cc(Cl)ccc4s3)o1)c1c[nH]nc1N2` (stereo not shown) [Example 74, 4-[5-(5-Chloro-benzothiazol-2-ylsulfanyl)-furan-2-yl]-2,4,6,7,8,9-hexahydro-pyrazolo[3,4-b]-1,7-naphthyridin-5-one; compound with trifluoro-acetic acid], the IC50 amounted to 0.302 µM on Aurora2 (Aurora-A) and 0.521 µM at Aurora1 (Aurora-B).
With `CC1(C)CC(=O)C2=C(C1)Nc1n[nH]cc1C2c1ccc(Sc2nc3cc(Cl)ccc3s2)o1` (stereo not shown) [Example 75, 4-[5-(5-Chloro-benzothiazol-2-ylsulfanyl)-furan-2-yl]-7,7-dimethyl-2,4,6,7,8,9-hexahydro-pyrazolo[3,4-b]quinolin-5-one], the values for the IC50 at Aurora2 (Aurora-A) and at Aurora1 (Aurora-B) were 0.073 µM and 0.183 µM, respectively.
